We go through 33 compounds from patent US20250346569A1, “NEW DERIVATIVES FOR TREATING TRPM3 MEDIATED DISORDERS” (Katholieke Universiteit Leuven, priority 2022, published 2025).

One test deals with TRPM3. Conditions: wild type mice vs knock-out TRPM3 mice; cited from earlier work.
For test [1] the following is noted: rat pain model; cited from earlier work.
For test [2], the target named is T1, mouse TRPM3α2 (mTRPM3) ion channel (Mus musculus, UniProt J9SQF3).
T1 construct: expressed in transfected cells; host or cells: flip-in HEK293
Briefly: Monitoring the TRPM3 ion channel driven Ca2+ uptake (Fluo-4 AM assay). The test is classed as cell-based. Conditions: TRPM3 overexpressing flip-in HEK293 cells, channel stimulated with Pregnenolone sulfate (PS) 50 μM. The procedure, abridged:
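Flp-In HEK293 cells overexpressing mTRPM3α2, loaded with Fluo-4 AM and added to wells holding compound plus 50 μM pregnenolone sulfate in Ca2+-containing Krebs buffer. Fluorescence (ex 485/em 535) read right after cell addition. Inhibition normalised to vehicle and positive-control inhibitor; IC50 derived.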

Where only a bound is given, the exact number is not on record here.

T1 sequence (J9SQF3 1-1709 isoform J9SQF3-12): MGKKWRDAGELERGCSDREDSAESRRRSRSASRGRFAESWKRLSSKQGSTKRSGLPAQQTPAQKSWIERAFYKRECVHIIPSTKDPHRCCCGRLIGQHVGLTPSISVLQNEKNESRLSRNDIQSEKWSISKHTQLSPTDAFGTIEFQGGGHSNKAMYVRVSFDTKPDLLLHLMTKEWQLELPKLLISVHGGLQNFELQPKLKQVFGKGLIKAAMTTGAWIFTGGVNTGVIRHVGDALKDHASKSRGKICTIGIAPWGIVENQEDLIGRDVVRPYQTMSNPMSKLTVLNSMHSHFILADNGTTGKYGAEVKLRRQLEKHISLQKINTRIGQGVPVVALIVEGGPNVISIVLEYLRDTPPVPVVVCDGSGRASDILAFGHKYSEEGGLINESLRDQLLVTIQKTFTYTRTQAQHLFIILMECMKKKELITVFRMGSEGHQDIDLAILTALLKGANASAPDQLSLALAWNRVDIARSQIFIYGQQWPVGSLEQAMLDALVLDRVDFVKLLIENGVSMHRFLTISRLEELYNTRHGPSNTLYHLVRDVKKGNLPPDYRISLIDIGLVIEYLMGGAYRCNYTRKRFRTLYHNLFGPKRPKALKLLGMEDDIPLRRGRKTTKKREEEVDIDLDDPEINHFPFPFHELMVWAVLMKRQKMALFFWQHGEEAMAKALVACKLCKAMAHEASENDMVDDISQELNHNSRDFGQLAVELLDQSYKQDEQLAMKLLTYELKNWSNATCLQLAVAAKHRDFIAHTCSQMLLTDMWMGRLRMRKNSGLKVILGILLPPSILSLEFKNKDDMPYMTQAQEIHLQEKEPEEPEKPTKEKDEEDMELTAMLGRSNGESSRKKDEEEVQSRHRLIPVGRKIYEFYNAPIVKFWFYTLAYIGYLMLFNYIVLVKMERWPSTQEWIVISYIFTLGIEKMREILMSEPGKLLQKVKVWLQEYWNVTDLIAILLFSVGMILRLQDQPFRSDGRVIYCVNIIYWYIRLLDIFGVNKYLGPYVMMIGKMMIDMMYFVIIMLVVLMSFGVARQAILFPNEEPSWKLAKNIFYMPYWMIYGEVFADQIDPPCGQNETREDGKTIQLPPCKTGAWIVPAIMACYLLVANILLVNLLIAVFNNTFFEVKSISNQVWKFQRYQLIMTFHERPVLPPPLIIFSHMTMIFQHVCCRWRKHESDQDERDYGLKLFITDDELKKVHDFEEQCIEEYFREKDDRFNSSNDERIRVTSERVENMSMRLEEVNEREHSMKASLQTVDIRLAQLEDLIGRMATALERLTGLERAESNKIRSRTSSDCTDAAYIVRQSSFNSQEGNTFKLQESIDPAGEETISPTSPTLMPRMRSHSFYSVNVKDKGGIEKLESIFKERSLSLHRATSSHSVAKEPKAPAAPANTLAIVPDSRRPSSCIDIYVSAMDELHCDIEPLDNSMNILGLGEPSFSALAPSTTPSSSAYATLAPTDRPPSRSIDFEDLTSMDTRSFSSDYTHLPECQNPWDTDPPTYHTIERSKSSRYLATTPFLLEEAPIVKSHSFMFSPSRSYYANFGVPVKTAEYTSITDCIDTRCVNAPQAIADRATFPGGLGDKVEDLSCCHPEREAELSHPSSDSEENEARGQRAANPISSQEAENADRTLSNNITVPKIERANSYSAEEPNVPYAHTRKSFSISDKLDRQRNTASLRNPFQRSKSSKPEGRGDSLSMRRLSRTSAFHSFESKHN

Regarding pregnenolone sulfate, the pain entry with TRPM3 is listed as “evoked pain in wild type mice but not in knock-out TRPM3 mice”.

Turning to `O=C1C[C@@H](c2ccc(O)cc2)Oc2cc(O)ccc21` [Liquiritigenin], in test [1], the “mechanical and cold hyperalgesia” value is “decrease mechanical and cold hyperalgesia”.

Take `Cc1sc2ccc(OCc3ccccc3F)cc2c1C(=O)NC1CCNCC1(F)F` (single isomer, unassigned) [Cpd 095 - En1, N-(3,3-difluoropiperidin-4-yl)-5-[(2-fluorophenyl)methoxy]-2-methyl-1-benzothiophene-3-carboxamide]: the IC50 (in general, the midpoint of a concentration-inhibition curve) in test [2] lay within 1000 to 20000 nM.

In the case of `Cc1ncsc1COc1ccc2sc(C)c(C(=O)NCCN3CCOC3=O)c2c1` [Cpd 048, 2-methyl-5-[(4-methyl-1,3-thiazol-5-yl)methoxy]-N-[2-(2-oxo-1,3-oxazolidin-3-yl)ethyl]-1-benzothiophene-3-carboxamide], the IC50 in test [2] was 1000 to 20000 nM.

`CNC(=O)c1c(C(F)F)sc2ccc(OCc3ccccc3)cc12` [Cpd 135, 5-(benzyloxy)-2-(difluoromethyl)-N-methyl-1-benzothiophene-3-carboxamide] registered an IC50 in test [2] above 20000 nM.

In test [2], `Cc1sc2ccc(OCc3cccnc3C(F)(F)F)cc2c1C(=O)N[C@H](CO)C(N)=O` [Cpd 058, (2R)-3-hydroxy-2-[(2-methyl-5-{[2-(trifluoromethyl)pyridin-3-yl]methoxy}-1-benzothiophen-3-yl)formamido]propanamide] came in with an IC50 below 1000 nM.

Turning to `Cc1ncsc1COc1ccc2sc(C)c(C(=O)N[C@@H](C)C(N)=O)c2c1` [Cpd 012, (2S)-2-({2-methyl-5-[(4-methyl-1,3-thiazol-5-yl)methoxy]-1-benzothiophen-3-yl}formamido)propanamide], the IC50 in test [2] was below 1000 nM.

Regarding `CN1CCC(NC(=O)c2c(C(F)F)sc3ccc(OCc4ccccc4)cc23)C1` (stereo not drawn) [Cpd 124, 5-(benzyloxy)-2-(difluoromethyl)-N-(1-methylpyrrolidin-3-yl)-1-benzothiophene-3-carboxamide], the half-inhibitory concentration (IC50) in test [2] was 1000 to 20000 nM.

In turn, `Cc1sc2ccc(OCC3CC3)cc2c1C(=O)NC(C)(C)C(N)=O` [Cpd 061, 2-{[5-(cyclopropylmethoxy)-2-methyl-1-benzothiophen-3-yl]formamido}-2-methylpropanamide] came in with an IC50 in test [2] below 1000 nM.

As to `Cn1ccc(NC(=O)c2c(C(F)F)sc3ccc(OCc4ccccc4)cc23)n1` [Cpd 131, 5-(benzyloxy)-2-(difluoromethyl)-N-(1-methyl-1H-pyrazol-3-yl)-1-benzothiophene-3-carboxamide], in test [2], the IC50 was in the range of 1000 to 20000 nM.

As for `Cc1ncsc1COc1ccc2sc(C)c(C(=O)NC(C)(C)C(N)=O)c2c1` [Cpd 031, 2-methyl-2-({2-methyl-5-[(4-methyl-1,3-thiazol-5-yl)methoxy]-1-benzothiophen-3-yl}formamido)propanamide], the IC50 in test [2] was below 1000 nM.

In test [2], `Cc1sc2ccc(OCc3ccccc3)cc2c1C(=O)NC1CC(F)(F)C1` [Cpd 089, 5-(benzyloxy)-N-(3,3-difluorocyclobutyl)-2-methyl-1-benzothiophene-3-carboxamide] gave an IC50 above 20000 nM.

In test [2], `CNC(=O)c1c(C)sc2ccc(OCc3ccccc3)cc12` [Cpd 134, 5-(benzyloxy)-N,2-dimethyl-1-benzothiophene-3-carboxamide] had an IC50 above 20000 nM.

In the case of `Cc1ncsc1COc1ccc2sc(C)c(C(=O)N[C@H](C)C(N)=O)c2c1` [Cpd 006, (2R)-2-({2-methyl-5-[(4-methyl-1,3-thiazol-5-yl)methoxy]-1-benzothiophen-3-yl}formamido)propanamide], the IC50 in test [2] is below 1000 nM.

Regarding `Cc1sc2ccc(OCc3cccnc3C(F)(F)F)cc2c1C(=O)NCC1(N(C)C)CCCC1` [Cpd 113, N-{[1-(dimethylamino)cyclopentyl]methyl}-2-methyl-5-{[2-(trifluoromethyl)pyridin-3-yl]methoxy}-1-benzothiophene-3-carboxamide], the IC50 in test [2] was below 1000 nM.

In turn, `Cc1sc2ccc(OCc3cccnc3C(F)(F)F)cc2c1C(=O)NC(C)(C)C(N)=O` [Cpd 065, 2-methyl-2-[(2-methyl-5-{[2-(trifluoromethyl)pyridin-3-yl]methoxy}-1-benzothiophen-3-yl)formamido]propanamide] came in with an IC50 in test [2] below 1000 nM.

As for `Cc1sc2ccc(OCc3cccnc3C(F)(F)F)cc2c1C(=O)NCCN(C)C` [Cpd 117, N-[2-(dimethylamino)ethyl]-2-methyl-5-{[2-(trifluoromethyl)pyridin-3-yl]methoxy}-1-benzothiophene-3-carboxamide], in test [2], the concentration for half-maximal inhibition (IC50) is below 1000 nM.

With `CNC(=O)C(C)(CO)NC(=O)c1c(C)sc2ccc(OCc3cnc(C)s3)cc12` (single isomer, unassigned) [Cpd 132 - En2, 3-hydroxy-N,2-dimethyl-2-({2-methyl-5-[(2-methyl-1,3-thiazol-5-yl)methoxy]-1-benzothiophen-3-yl}formamido)propanamide], the IC50 in test [2] is below 1000 nM.

As to `Cc1ncc(COc2ccc3sc(C)c(C(=O)NC(C)(C)C(N)=O)c3c2)s1` [Cpd 018, 2-methyl-2-({2-methyl-5-[(2-methyl-1,3-thiazol-5-yl)methoxy]-1-benzothiophen-3-yl}formamido)propanamide], the IC50 in test [2] is below 1000 nM.

In test [2], `Cc1ncc(COc2ccc3sc(C)c(C(=O)NC4(CO)COC4)c3c2)s1` [Cpd 025, N-[3-(hydroxymethyl)oxetan-3-yl]-2-methyl-5-[(2-methyl-1,3-thiazol-5-yl)methoxy]-1-benzothiophene-3-carboxamide] yielded an IC50 below 1000 nM.

In test [2], `Cc1sc2ccc(OCc3ccccc3)cc2c1C(=O)NC1CN(C)CC1(F)F` (stereo not drawn) [Cpd 120, 5-(benzyloxy)-N-(4,4-difluoro-1-methylpyrrolidin-3-yl)-2-methyl-1-benzothiophene-3-carboxamide] displayed an IC50 below 1000 nM.

As to `Cc1sc2ccc(OCc3ccccc3F)cc2c1C(=O)NC1CCNC1=O` (stereo not drawn) [Cpd 093, 5-[(2-fluorophenyl)methoxy]-2-methyl-N-(2-oxopyrrolidin-3-yl)-1-benzothiophene-3-carboxamide], in test [2], the IC50 is below 1000 nM.

Compound `Cc1sc2ccc(OCc3cccnc3C(F)(F)F)cc2c1C(=O)NC1CCOC1` (stereo not drawn) [Cpd 097, 2-methyl-N-(oxolan-3-yl)-5-{[2-(trifluoromethyl)pyridin-3-yl]methoxy}-1-benzothiophene-3-carboxamide] registered an IC50 in test [2] below 1000 nM.

For the compound `Cc1sc2ccc(OCc3cccnc3C(F)(F)F)cc2c1C(=O)NCCN1CCOC1=O` [Cpd 107, 2-methyl-N-[2-(2-oxo-1,3-oxazolidin-3-yl)ethyl]-5-{[2-(trifluoromethyl)pyridin-3-yl]methoxy}-1-benzothiophene-3-carboxamide], the IC50 in test [2] was in the range of 1000 to 20000 nM.

For the compound `Cc1sc2ccc(OCc3ccccc3)cc2c1C(=O)NCCN1CCOC1=O` [Cpd 106, 5-(benzyloxy)-2-methyl-N-[2-(2-oxo-1,3-oxazolidin-3-yl)ethyl]-1-benzothiophene-3-carboxamide], the IC50 in test [2] lay in the range of 1000 to 20000 nM.

Compound `CNC(=O)c1c(C)sc2ccc(OCc3cccnc3C(F)(F)F)cc12` [Cpd 136, N,2-dimethyl-5-{[2-(trifluoromethyl)pyridin-3-yl]methoxy}-1-benzothiophene-3-carboxamide] showed an IC50 in test [2] below 1000 nM.

In test [2], `COc1ncccc1COc1ccc2sc(C)c(C(=O)N[C@@H](C)C(N)=O)c2c1` [Cpd 138, (2S)-2-({5-[(2-methoxypyridin-3-yl)methoxy]-2-methyl-1-benzothiophen-3-yl}formamido)propanamide] yielded an IC50 below 1000 nM.

`O=C(O)c1c(C(F)F)sc2ccc(OCc3ccccc3)cc12` [Cpd 150, 5-(benzyloxy)-2-(difluoromethyl)-1-benzothiophene-3-carboxylic acid] gave an IC50 in test [2] below 1000 nM.

In turn, `Cc1sc2ccc(OCc3cccnc3C(F)(F)F)cc2c1C(=O)N[C@@H](CO)C(N)=O` [Cpd 053, (2S)-3-hydroxy-2-[(2-methyl-5-{[2-(trifluoromethyl)pyridin-3-yl]methoxy}-1-benzothiophen-3-yl)formamido]propanamide] returned a 50% inhibitory concentration (IC50) in test [2] below 1000 nM.

In test [2], `Cc1sc2ccc(OCc3ccccc3)cc2c1C(=O)NCC(C)(C)N1CCOCC1` [Cpd 098, 5-(benzyloxy)-2-methyl-N-[2-methyl-2-(morpholin-4-yl)propyl]-1-benzothiophene-3-carboxamide] displayed an IC50 of 1000 to 20000 nM.

In test [2], `Cc1sc2ccc(OCc3cccnc3C(F)(F)F)cc2c1C(=O)NCC(C)(C)N1CCOCC1` [Cpd 099, 2-methyl-N-[2-methyl-2-(morpholin-4-yl)propyl]-5-{[2-(trifluoromethyl)pyridin-3-yl]methoxy}-1-benzothiophene-3-carboxamide] returned an IC50 of 1000 to 20000 nM.

As for `CN(C)CCNC(=O)c1c(C(F)F)sc2ccc(OCc3ccccc3)cc12` [Cpd 116, 5-(benzyloxy)-2-(difluoromethyl)-N-[2-(dimethylamino)ethyl]-1-benzothiophene-3-carboxamide], the IC50 in test [2] lay within 1000 to 20000 nM.

With `Cc1ncsc1COc1ccc2sc(C)c(C(=O)NC3CN(C)CC3(F)F)c2c1` (stereo not drawn) [Cpd 122, N-(4,4-difluoro-1-methylpyrrolidin-3-yl)-2-methyl-5-[(4-methyl-1,3-thiazol-5-yl)methoxy]-1-benzothiophene-3-carboxamide], in test [2], the IC50 was below 1000 nM.
